In PubChem BioAssay (NCI):
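Briefly, cells in 96-well plates were exposed to five compound concentrations for 48 h, and endpoints were estimated by linear interpolation. GI50 marks 50% less growth. Definition used: TGI = concentration required for complete inhibition of growth.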

Tests used:
Experiment in all cases: DTP human tumour cell line panel, 48 h
UACC-62 melanoma = tested on: UACC-62 melanoma
786-0 renal = tested on: 786-0 renal
A498 renal = tested on: A498 renal
A549 NSCLC = tested on: A549 NSCLC
ACHN renal = tested on: ACHN renal
BT-549 breast = tested on: BT-549 breast
CAKI-1 renal = tested on: CAKI-1 renal
CCRF-CEM leukemia = tested on: CCRF-CEM leukemia
COLO 205 colon = tested on: COLO 205 colon
DU-145 prostate = tested on: DU-145 prostate
EKVX NSCLC = tested on: EKVX NSCLC
HCC-2998 colon = tested on: HCC-2998 colon
HCT-116 colon = tested on: HCT-116 colon
HCT-15 colon = tested on: HCT-15 colon
HL-60(TB) leukemia = tested on: HL-60(TB) leukemia
HOP-62 NSCLC = tested on: HOP-62 NSCLC
HOP-92 NSCLC = tested on: HOP-92 NSCLC
HS 578T breast = tested on: HS 578T breast
HT29 colon = tested on: HT29 colon
IGROV1 ovarian = tested on: IGROV1 ovarian
K-562 leukemia = tested on: K-562 leukemia
KM12 colon = tested on: KM12 colon
LOX IMVI melanoma = tested on: LOX IMVI melanoma
M14 melanoma = tested on: M14 melanoma
MALME-3M melanoma = tested on: MALME-3M melanoma
MCF7 breast = tested on: MCF7 breast
MDA-MB-231 breast = tested on: MDA-MB-231 breast
MDA-MB-435 = tested on: MDA-MB-435
MOLT-4 leukemia = tested on: MOLT-4 leukemia
NCI-H226 lung = tested on: NCI-H226 lung
NCI-H23 lung = tested on: NCI-H23 lung
NCI-H460 lung = tested on: NCI-H460 lung
NCI-H522 lung = tested on: NCI-H522 lung
NCI/ADR-RES ovarian = tested on: NCI/ADR-RES ovarian
OVCAR-3 ovarian = tested on: OVCAR-3 ovarian
OVCAR-4 ovarian = tested on: OVCAR-4 ovarian
OVCAR-5 ovarian = tested on: OVCAR-5 ovarian
OVCAR-8 ovarian = tested on: OVCAR-8 ovarian
PC-3 prostate = tested on: PC-3 prostate
RPMI-8226 leukemia = tested on: RPMI-8226 leukemia
RXF 393 renal = tested on: RXF 393 renal
SF-268 CNS = tested on: SF-268 CNS
SF-295 CNS = tested on: SF-295 CNS
SF-539 CNS = tested on: SF-539 CNS
SK-MEL-2 melanoma = tested on: SK-MEL-2 melanoma
SK-MEL-28 melanoma = tested on: SK-MEL-28 melanoma
SK-MEL-5 melanoma = tested on: SK-MEL-5 melanoma
SK-OV-3 ovarian = tested on: SK-OV-3 ovarian
SN12C renal = tested on: SN12C renal
SNB-19 CNS = tested on: SNB-19 CNS
SR leukemia = tested on: SR leukemia
SW-620 colon = tested on: SW-620 colon
T-47D breast = tested on: T-47D breast
TK-10 renal = tested on: TK-10 renal
U251 CNS = tested on: U251 CNS
UACC-257 melanoma = tested on: UACC-257 melanoma
UO-31 renal = tested on: UO-31 renal

Compound: [O-]c1c2cc(-[n+]3c(-c4ccccc4)cc(-c4ccccc4)cc3-c3ccccc3)cc1CO[C@@H](c1ccccc1)[C@H](c1ccccc1)OCc1cccc(n1)CO[C@@H](c1ccccc1)[C@H](c1ccccc1)OC2
- TGI (UACC-62 melanoma): 1680 nM

Compound: COc1cc(C2C3=C(COC3=O)N(CCO)c3cc4c(cc32)CCC4)cc(OC)c1O (stereo unspecified)
- GI50 (786-0 renal): 770 nM
- TGI (786-0 renal): 32000 nM
- GI50 (A498 renal): 131 nM
- TGI (A498 renal): 5640 nM
- GI50 (A549 NSCLC): 499 nM
- TGI (A549 NSCLC): > 32500 nM
- GI50 (ACHN renal): 706 nM
- TGI (ACHN renal): > 32500 nM
- GI50 (BT-549 breast): 680 nM
- TGI (BT-549 breast): > 9160 nM
- GI50 (CAKI-1 renal): 508 nM
- TGI (CAKI-1 renal): > 26300 nM
- GI50 (CCRF-CEM leukemia): 1210 nM
- TGI (CCRF-CEM leukemia): > 32500 nM
- GI50 (COLO 205 colon): 229 nM
- TGI (COLO 205 colon): 2160 nM
- GI50 (DU-145 prostate): 136 nM
- TGI (DU-145 prostate): 2310 nM
- GI50 (EKVX NSCLC): 1380 nM
- TGI (EKVX NSCLC): > 32500 nM
- GI50 (HCC-2998 colon): 221 nM
- TGI (HCC-2998 colon): 1290 nM
- GI50 (HCT-116 colon): 138 nM
- TGI (HCT-116 colon): > 12500 nM
- GI50 (HCT-15 colon): 1090 nM
- TGI (HCT-15 colon): > 32500 nM
- GI50 (HL-60(TB) leukemia): 87.4 nM
- TGI (HL-60(TB) leukemia): 448 nM
- GI50 (HOP-62 NSCLC): 213 nM
- TGI (HOP-62 NSCLC): > 32500 nM
- GI50 (HOP-92 NSCLC): > 32500 nM
- TGI (HOP-92 NSCLC): > 32500 nM
- GI50 (HS 578T breast): 106 nM
- TGI (HS 578T breast): 11400 nM
- GI50 (HT29 colon): 156 nM
- GI50 (IGROV1 ovarian): 159 nM
- TGI (IGROV1 ovarian): 11400 nM
- GI50 (K-562 leukemia): 161 nM
- TGI (K-562 leukemia): > 32500 nM
- GI50 (KM12 colon): 121 nM
- TGI (KM12 colon): 5520 nM
- GI50 (LOX IMVI melanoma): 187 nM
- TGI (LOX IMVI melanoma): > 32500 nM
- GI50 (M14 melanoma): 179 nM
- GI50 (MALME-3M melanoma): 104 nM
- TGI (MALME-3M melanoma): > 32500 nM
- GI50 (MCF7 breast): 107 nM
- TGI (MCF7 breast): > 21400 nM
- GI50 (MDA-MB-231 breast): 760 nM
- TGI (MDA-MB-231 breast): > 32500 nM
- GI50 (MDA-MB-435): 64.6 nM
- TGI (MDA-MB-435): 191 nM
- GI50 (MOLT-4 leukemia): 520 nM
- TGI (MOLT-4 leukemia): > 32500 nM
- GI50 (NCI-H226 lung): 3750 nM
- TGI (NCI-H226 lung): > 32500 nM
- GI50 (NCI-H23 lung): 402 nM
- TGI (NCI-H23 lung): > 32500 nM
- GI50 (NCI-H460 lung): 114 nM
- TGI (NCI-H460 lung): 6650 nM
- GI50 (NCI-H522 lung): 43.2 nM
- TGI (NCI-H522 lung): 122 nM
- GI50 (NCI/ADR-RES ovarian): 2450 nM
- TGI (NCI/ADR-RES ovarian): > 21000 nM
- GI50 (OVCAR-3 ovarian): 70.3 nM
- TGI (OVCAR-3 ovarian): 184 nM
- GI50 (OVCAR-4 ovarian): 278 nM
- TGI (OVCAR-4 ovarian): > 32500 nM
- GI50 (OVCAR-5 ovarian): 3180 nM
- TGI (OVCAR-5 ovarian): > 32500 nM
- GI50 (OVCAR-8 ovarian): 365 nM
- TGI (OVCAR-8 ovarian): > 32500 nM
- GI50 (PC-3 prostate): 203 nM
- TGI (PC-3 prostate): > 32500 nM
- GI50 (RPMI-8226 leukemia): 838 nM
- TGI (RPMI-8226 leukemia): > 32500 nM
- GI50 (RXF 393 renal): 94.3 nM
- GI50 (SF-268 CNS): 182 nM
- TGI (SF-268 CNS): > 32500 nM
- GI50 (SF-295 CNS): 97.3 nM
- TGI (SF-295 CNS): 354 nM
- GI50 (SF-539 CNS): 136 nM
- TGI (SF-539 CNS): > 32500 nM
- GI50 (SK-MEL-2 melanoma): 79.5 nM
- TGI (SK-MEL-2 melanoma): 262 nM
- GI50 (SK-MEL-28 melanoma): 213 nM
- TGI (SK-MEL-28 melanoma): > 32500 nM
- GI50 (SK-MEL-5 melanoma): 102 nM
- TGI (SK-MEL-5 melanoma): > 11000 nM
- GI50 (SK-OV-3 ovarian): 168 nM
- TGI (SK-OV-3 ovarian): > 32500 nM
- GI50 (SN12C renal): 499 nM
- TGI (SN12C renal): > 32500 nM
- GI50 (SNB-19 CNS): 318 nM
- TGI (SNB-19 CNS): > 32500 nM
- GI50 (SR leukemia): 192 nM
- TGI (SR leukemia): > 32500 nM
- GI50 (SW-620 colon): 121 nM
- TGI (SW-620 colon): > 32500 nM
- GI50 (T-47D breast): 141 nM
- TGI (T-47D breast): > 32500 nM
- GI50 (TK-10 renal): > 32500 nM
- TGI (TK-10 renal): > 32500 nM
- GI50 (U251 CNS): 145 nM
- TGI (U251 CNS): > 32500 nM
- TGI (UACC-257 melanoma): > 32500 nM
- GI50 (UACC-62 melanoma): 134 nM
- TGI (UACC-62 melanoma): > 32500 nM
- GI50 (UO-31 renal): 426 nM
- TGI (UO-31 renal): > 32500 nM
